Reference: patent US20070060621A1, “Methods and compositions for the administration of prodrugs of proton pump inhibitors” (priority 2004, published 2007)

What was measured:
Format in all cases: physicochemical
[1] = Stability profile at 25° C. in buffered aqueous solutions
Description: The base-catalyzed degradation is unexpected because the commercial proton pump inhibitors are stabilized in aqueous solutions by adjusting the solution to high pH.

[2] = Hygroscopicity of compound 1 on storage
Procedure: The physicochemical properties of compound 1 were analyzed.

[3] = Stability of compound 1 at 0.02 mg/mL at 25° C. in water, NaCl salt and phosphate buffer; details: for % Remaining: 25° C., 0.02 mg/mL; for Half Life (t½) / Rate Constant (k) / Shelf life (t90%): first order decay from 3-29 days
Procedure: FIG. 1 is a plot of the % of the original concentration of compound remaining over time. The original concentration of compound 1 was 0.02 mg/mL, and stability was assessed at 25° C. in 1) water, 2) NaCl salt (μ=0.15), 3) NaCl salt (μ=0.5), 4) phosphate buffer (pH 7.0, μ=0.15), and 5) phosphate buffer (pH 7.0, μ=0.5).
FIG. 2 is a log plot of the data of FIG. 1.
The stability of compound 1 at a concentration of 0.02 mg/mL in water at 25° C. was assessed in 1) water, 2) NaCl salt (μ=0.15), 3) NaCl salt (μ=0.5), 4) phosphate buffer (pH 7.0, μ=0.15), and 5) phosphate buffer (pH 7.0, μ=0.5). For the buffer solutions, the ionic strength (μ) was adjusted using sodium chloride, and the buffer concentration of the two solutions was equal (0.1 M). The amount of remaining compound 1 is presented as the % of the original concentration of 0.02 mg/mL for each sample in Table 3a and in FIG. 1.

[4] = pH 3, Citric Acid (0.1 M)/Na2HPO4 (0.2 M)
[5] = pH 5, Citric Acid (0.1 M)/Na2HPO4 (0.2 M)
[6] = pH 7, sodium phosphate (0.1-0.2 M)
[7] = pH 7.4, sodium phosphate (0.1-0.2 M)
[8] = pH 9, sodium phosphate (0.1-0.2 M)
[9] = pH 10, sodium phosphate (0.1-0.2 M)
[10] = Na phosphate buffer, u = 0.15, pH 7.0, 25° C.
[11] = Na phosphate buffer, u = 0.5, pH 7.0, 25° C.

Structure (SMILES): COc1ccc2c(c1)nc([S+]([O-])Cc1ncc(C)c(OC)c1C)n2S(=O)(=O)c1ccc(OCC(=O)O)cc1 (centres unmarked) [Compound 1]
- Degradation Rate Constant (k) ([1]; No buffer): 0.0002 h⁻¹
- Half-life (t1/2) ([1]; No buffer): 119.32 days
- Shelf life (t90%) ([1]; No buffer): 435.4 h
- Degradation Rate Constant (k) ([1]; pH 1, 0.1 M HCl): 0.194 h⁻¹
- Half-life (t1/2) ([1]; pH 1, 0.1 M HCl): 0.15 days
- Shelf life (t90%) ([1]; pH 1, 0.1 M HCl): 0.5 h
- Degradation Rate Constant (k) [1, 4]: 0.009 h⁻¹
- Half-life (t1/2) [1, 4]: 3.25 days
- Shelf life (t90%) [1, 4]: 11.9 h
- Degradation Rate Constant (k) [1, 5]: 0.008 h⁻¹
- Half-life (t1/2) [1, 5]: 3.72 days
- Shelf life (t90%) [1, 5]: 13.6 h
- Degradation Rate Constant (k) [1, 6]: 0.002 h⁻¹
- Half-life (t1/2) [1, 6]: 11.95 days
- Shelf life (t90%) [1, 6]: 43.6 h
- Degradation Rate Constant (k) [1, 7]: 0.002 h⁻¹
- Half-life (t1/2) [1, 7]: 12.13 days
- Shelf life (t90%) [1, 7]: 44.3 h
- Degradation Rate Constant (k) [1, 8]: 0.030 h⁻¹
- Half-life (t1/2) [1, 8]: 0.958 days
- Shelf life (t90%) [1, 8]: 3.5 h
- Degradation Rate Constant (k) [1, 9]: 0.298 h⁻¹
- Half-life (t1/2) [1, 9]: 0.0958 days
- Shelf life (t90%) [1, 9]: 0.4 h
- hygroscopicity ([2]; 14 days of storage at 25° C. at 75% relative humidity): hygroscopic
- weight gain ([2]; after 14 days of storage at 25° C. at 75% relative humidity): 9%
- % Remaining ([3]; Day 1, NaCL, u = 0.15 (pH 6.6)): 84.134%
- % Remaining ([3]; Day 1, NaCL, u = 0.5 (pH 6.2)): 87.598%
- % Remaining ([3]; Day 1, Phosphate buffer, u = 0.15 (pH 7.0)): 96.294%
- % Remaining ([3]; Day 1, Phosphate buffer, u = 0.5 (pH 7.0)): 96.709%
- % Remaining ([3]; Day 1, Water (pH 7.2)): 92.212%
- % Remaining ([3]; Day 3, NaCL, u = 0.15 (pH 6.6)): 76.960%
- % Remaining ([3]; Day 3, NaCL, u = 0.5 (pH 6.2)): 80.750%
- % Remaining ([3]; Day 3, Phosphate buffer, u = 0.15 (pH 7.0)): 90.597%
- % Remaining ([3]; Day 3, Phosphate buffer, u = 0.5 (pH 7.0)): 90.087%
- % Remaining ([3]; Day 3, Water (pH 7.2)): 86.085%
- % Remaining ([3]; Day 4, NaCL, u = 0.15 (pH 6.6)): 77.037%
- % Remaining ([3]; Day 4, NaCL, u = 0.5 (pH 6.2)): 78.348%
- % Remaining ([3]; Day 4, Phosphate buffer, u = 0.15 (pH 7.0)): 87.434%
- % Remaining ([3]; Day 4, Phosphate buffer, u = 0.5 (pH 7.0)): 85.994%
- % Remaining ([3]; Day 4, Water (pH 7.2)): 86.410%
- % Remaining ([3]; Day 7, NaCL, u = 0.15 (pH 6.6)): 75.398%
- % Remaining ([3]; Day 7, NaCL, u = 0.5 (pH 6.2)): 76.513%
- % Remaining ([3]; Day 7, Phosphate buffer, u = 0.15 (pH 7.0)): 80.995%
- % Remaining ([3]; Day 7, Phosphate buffer, u = 0.5 (pH 7.0)): 76.165%
- % Remaining ([3]; Day 7, Water (pH 7.2)): 84.569%
- % Remaining ([3]; Day 9, NaCL, u = 0.15 (pH 6.6)): 71.861%
- % Remaining ([3]; Day 9, NaCL, u = 0.5 (pH 6.2)): 74.482%
- % Remaining ([3]; Day 9, Phosphate buffer, u = 0.15 (pH 7.0)): 76.176%
- % Remaining ([3]; Day 9, Phosphate buffer, u = 0.5 (pH 7.0)): 70.768%
- % Remaining ([3]; Day 9, Water (pH 7.2)): 84.452%
- % Remaining ([3]; Day 11, NaCL, u = 0.15 (pH 6.6)): 73.763%
- % Remaining ([3]; Day 11, NaCL, u = 0.5 (pH 6.2)): 74.312%
- % Remaining ([3]; Day 11, Phosphate buffer, u = 0.15 (pH 7.0)): 74.520%
- % Remaining ([3]; Day 11, Phosphate buffer, u = 0.5 (pH 7.0)): 67.826%
- % Remaining ([3]; Day 11, Water (pH 7.2)): 86.930%
- % Remaining ([3]; Day 13, NaCL, u = 0.15 (pH 6.6)): 72.390%
- % Remaining ([3]; Day 13, NaCL, u = 0.5 (pH 6.2)): 71.691%
- % Remaining ([3]; Day 13, Phosphate buffer, u = 0.15 (pH 7.0)): 68.020%
- % Remaining ([3]; Day 13, Water (pH 7.2)): 83.661%
- % Remaining ([3]; Day 15, NaCL, u = 0.15 (pH 6.6)): 67.858%
- % Remaining ([3]; Day 15, NaCL, u = 0.5 (pH 6.2)): 68.167%
- % Remaining ([3]; Day 15, Phosphate buffer, u = 0.15 (pH 7.0)): 62.389%
- % Remaining ([3]; Day 15, Phosphate buffer, u = 0.5 (pH 7.0)): 52.494%
- % Remaining ([3]; Day 15, Water (pH 7.2)): 80.913%
- % Remaining ([3]; Day 20, NaCL, u = 0.15 (pH 6.6)): 64.953%
- % Remaining ([3]; Day 20, NaCL, u = 0.5 (pH 6.2)): 65.173%
- % Remaining ([3]; Day 20, Phosphate buffer, u = 0.15 (pH 7.0)): 54.360%
- % Remaining ([3]; Day 20, Phosphate buffer, u = 0.5 (pH 7.0)): 44.057%
- % Remaining ([3]; Day 20, Water (pH 7.2)): 78.768%
- % Remaining ([3]; Day 24, NaCL, u = 0.15 (pH 6.6)): 64.848%
- % Remaining ([3]; Day 24, NaCL, u = 0.5 (pH 6.2)): 65.753%
- % Remaining ([3]; Day 24, Phosphate buffer, u = 0.15 (pH 7.0)): 50.246%
- % Remaining ([3]; Day 24, Phosphate buffer, u = 0.5 (pH 7.0)): 39.181%
- % Remaining ([3]; Day 24, Water (pH 7.2)): 79.915%
- % Remaining ([3]; Day 29, NaCL, u = 0.15 (pH 6.6)): 62.731%
- % Remaining ([3]; Day 29, NaCL, u = 0.5 (pH 6.2)): 62.867%
- % Remaining ([3]; Day 29, Phosphate buffer, u = 0.15 (pH 7.0)): 43.321%
- % Remaining ([3]; Day 29, Phosphate buffer, u = 0.5 (pH 7.0)): 32.626%
- % Remaining ([3]; Day 29, Water (pH 7.2)): 78.412%
- Half Life (t½) [3, 10]: 24.063 days
- Rate Constant (k) [3, 10]: 0.0288 day⁻¹
- Shelf life (t90%) [3, 10]: 3.658 days
- Half Life (t½) [3, 11]: 17.589 days
- Rate Constant (k) [3, 11]: 0.0394 day⁻¹
- Shelf life (t90%) [3, 11]: 2.674 days
- Half Life (t½) ([3]; NaCl, u = 0.15, pH 6.6, 25° C.): 80.581 days
- Rate Constant (k) ([3]; NaCl, u = 0.15, pH 6.6, 25° C.): 0.0086 day⁻¹
- Shelf life (t90%) ([3]; NaCl, u = 0.15, pH 6.6, 25° C.): 12.251 days
- Half Life (t½) ([3]; NaCl, u = 0.5, pH 6.6, 25° C.): 75.326 days
- Rate Constant (k) ([3]; NaCl, u = 0.5, pH 6.6, 25° C.): 0.0092 day⁻¹
- Shelf life (t90%) ([3]; NaCl, u = 0.5, pH 6.6, 25° C.): 11.452 days
- Half Life (t½) ([3]; water, pH 7.2, 25° C.): 161.163 days
- Rate Constant (k) ([3]; water, pH 7.2, 25° C.): 0.0043 day⁻¹
- Shelf life (t90%) ([3]; water, pH 7.2, 25° C.): 24.502 days
